The target of one test is hepatic lipase (HL) (Homo sapiens (Human), UniProt P11150). Briefly: HL assay: hepatic lipase activity with fluorescent substrate A10070 in DMPG vesicles. It counts as biochemical. How it is done:
Endothelial lipase (EL) and hepatic lipase (HL) activities were measured using a fluorescent substrate, A10070, (Invitrogen, CA) doped into an artificial vesicle containing DMPG (Avanti Polar Lipids) as the excipient. Vesicles were prepared by combining 571 μL of 29 mM DMPG in a 1:1 mixture of MeOH and CHCl3 with 2000 μL of 1 mM A10070 in a 1:1 mixture of MeOH and CHCl3. The mixture was dried under nitrogen in multiple vials then resuspended in 20 mL total volume of 50 mM HEPES pH 8.0 buffer containing 50 mM NaCl and 0.2 mM EDTA. The sample was allowed to sit at room temperature for 15 min and then was sonicated 3×4 mins on ice with a Branson Sonicator using duty cycle 1. This preparation provides vesicles with a mole fraction of 0.11 for the FRET substrate.
The enzymatic assay was measured using 384-well white Optiplates. Each well contained 20 μL of assay buffer (50 mM HEPES pH 8.0, 50 mM NaCl and 1 mM CaCl2) and 0.25 μL of a DMSO solution containing a compound of interest. EL or HL (10 μL) was added and allowed to incubate with the compound for 30 min at 37° C. The source of EL was conditioned media obtained from HT-1080 cells that were transformed using RAGE technology (Athersys) to overexpress endogenous EL, and HL was partially purified from conditioned media obtained from COS cells overexpressing HL. The reaction was started by the addition of 10 μL of a 1:10 dilution of vesicles. The final total reaction volume was […]. The reaction rates were measured on a Gemini plate reader with an excitation wavelength of 490 nm and an emission wavelength of 530 nm. Readings were taken over a period of 60 minutes, and the slope between 300 and 900 secs of the readout was used to calculate the rate of the reaction.

The target of the next test is Endothelial lipase (EL) (Homo sapiens (Human), UniProt Q9Y5X9). Briefly: EL assay: endothelial lipase activity with fluorescent substrate A10070 in DMPG vesicles. Format: biochemical. In a few lines: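 Vesicles prepared: A10070 dried with DMPG, resuspended in HEPES pH 8.0/NaCl/EDTA, sonicated on ice. Enzyme incubated with compound 30 min at 37° C. Reaction started with 1:10 diluted vesicles. Fluorescence (490/530 nm) followed 60 min; slope from 300–900 secs gives rate.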
Endothelial lipase (EL), sequence (Q9Y5X9 21-500): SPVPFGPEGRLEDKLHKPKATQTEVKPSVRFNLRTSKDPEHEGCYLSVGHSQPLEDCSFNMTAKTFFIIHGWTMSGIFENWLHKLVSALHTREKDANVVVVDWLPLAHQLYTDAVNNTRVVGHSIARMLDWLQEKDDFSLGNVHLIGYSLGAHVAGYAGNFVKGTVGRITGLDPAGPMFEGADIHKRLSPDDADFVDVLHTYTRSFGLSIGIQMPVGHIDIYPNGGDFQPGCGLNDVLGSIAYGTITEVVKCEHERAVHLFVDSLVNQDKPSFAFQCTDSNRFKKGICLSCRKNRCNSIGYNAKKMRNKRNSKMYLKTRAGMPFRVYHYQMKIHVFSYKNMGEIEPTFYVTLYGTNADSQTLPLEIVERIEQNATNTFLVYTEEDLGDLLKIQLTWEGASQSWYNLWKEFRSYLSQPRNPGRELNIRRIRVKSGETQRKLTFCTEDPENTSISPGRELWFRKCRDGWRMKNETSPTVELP

SMILES strings stand for the structures. Bounds are passed on as bounds.

Data on 22 compounds can be found in patent publication US8987314B2, “Amide, urea or sulfone amide linked benzothiazole inhibitors of endothelial lipase” (Bristol-Myers Squibb Company, priority 2012, dated 2015).

hepatic lipase (HL), sequence (P11150 23-499, species assumed): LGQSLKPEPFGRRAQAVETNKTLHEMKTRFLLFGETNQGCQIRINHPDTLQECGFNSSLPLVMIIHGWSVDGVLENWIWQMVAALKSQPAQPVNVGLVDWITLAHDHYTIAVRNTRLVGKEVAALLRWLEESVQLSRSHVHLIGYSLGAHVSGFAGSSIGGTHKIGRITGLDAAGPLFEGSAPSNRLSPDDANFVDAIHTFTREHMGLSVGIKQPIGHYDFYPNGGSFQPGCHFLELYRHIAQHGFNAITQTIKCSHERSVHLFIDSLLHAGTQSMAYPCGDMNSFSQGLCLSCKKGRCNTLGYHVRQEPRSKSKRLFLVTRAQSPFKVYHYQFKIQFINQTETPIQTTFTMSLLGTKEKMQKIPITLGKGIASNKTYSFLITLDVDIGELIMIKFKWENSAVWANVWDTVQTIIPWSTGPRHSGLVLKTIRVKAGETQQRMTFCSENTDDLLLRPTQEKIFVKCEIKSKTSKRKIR

Consider `NS(=O)(=O)CCNC(=O)C(c1nc2ccc(-c3ccc(CCO)cc3)cc2s1)S(=O)(=O)CCC(F)(F)F` (centres unmarked) [Example B53, 2-(6-(4-(2-hydroxyethyl)phen-yl)-1,3-benzothiazol-2-yl)-N-(2-sulfamoylethyl)-2-((3,3,3-trifluoropropyl)sul-fonyl)acetamide], for which the IC50 (usually the midpoint of a concentration-inhibition curve) at hepatic lipase (HL) is 0.152 µM; against Endothelial lipase (EL) it was less than 0.01 µM.
The like results for `NS(=O)(=O)CCNC(=O)C(c1nc2ccc(-c3ccc(OCCN4CCCCC4)cc3)cc2s1)S(=O)(=O)CCC(F)(F)F` (centres unmarked) [Example B54, 2-(6-(4-(2-(1-piperidinyl)ethoxy)phenyl)-1,3-benzothiazol-2-yl)-N-(2-sulfamoylethyl)-2-((3,3.3-trifluoropropyl)sul-fonyl)acetamide] were, in that order, 0.023 µM and less than 0.01 µM.
For the compound `CC(=O)Nc1ccc(-c2ccc3nc(C(C(=O)NCCS(N)(=O)=O)S(=O)(=O)CCC(F)(F)F)sc3c2)cc1` (centres unmarked) [Example B55, 2-(6-(4-acetamidophenyl)-1,3-benzothiazol-2-yl)-N-(2-sulfamoylethyl)-2-((3,3,3-trifluoropropyl)sul-fonyl)acetamide], the IC50 was 0.055 µM on hepatic lipase (HL) and less than 0.01 µM on Endothelial lipase (EL).
The like results for `CS(=O)(=O)C(C(=O)NCCS(N)(=O)=O)c1nc2ccc(-c3ccc(CO)cc3)cc2s1` (centres unmarked) [Example B56, 2-(6-(4-(hydroxymethyl)phen-yl)-1,3-benzothiazol-2-yl)-2-(methylsulfonyl)-N-(2-sulfamoylethyl)a-cetamide] were, in that order, 0.122 µM and less than 0.01 µM.
The like results for `CS(=O)(=O)C(C(=O)NCCS(N)(=O)=O)c1nc2ccc(-c3ccc(S(=O)(=O)NCCO)cc3)cc2s1` (centres unmarked) [Example B57, 2-(6-(4-((2-hydroxyeth-yl)sulfamoyl)phenyl)-1,3-benzothiazol-2-yl)-2-(methylsulfonyl)-N-(2-sulfamoylethyl)acetamide] were, in that order, 0.144 µM and less than 0.01 µM.
As to `CS(=O)(=O)C(C(=O)NCCS(N)(=O)=O)c1nc2ccc(-c3cccc(CCO)c3)cc2s1` (centres unmarked) [Example B58, 2-(6-(3-(2-hydroxyethyl)phenyl)-1,3-benzothiazol-2-yl)-2-(methylsulfonyl)-N-(2-sulfamoylethyl)acetamide], the results for the IC50 on hepatic lipase (HL) and at Endothelial lipase (EL) were 0.036 µM and less than 0.01 µM, respectively.
On to `NS(=O)(=O)CCNC(=O)C(c1nc2ccc(-c3ccc(C(=O)NCCO)cc3)cc2s1)S(=O)(=O)CC1CC1` (centres unmarked) [Example B59, 4-(2-(1-((cyclopropylmeth-yl)sulfonyl)-2-oxo-2-((2-sulfamoylethyl)amino)eth-yl)-1,3-benzothiazol-6-yl)-N-(2-hydroxyethyl)ben-zamide], for which the results for the IC50 at hepatic lipase (HL) and against Endothelial lipase (EL) were 0.102 µM and less than 0.01 µM, respectively.
The like results for `NS(=O)(=O)CCNC(=O)C(c1nc2ccc(-c3ccc(CCO)cc3)cc2s1)S(=O)(=O)CC1CC1` (centres unmarked) [Example B60, 2-((cyclopropylmethyl)sul-fonyl)-2-(6-(4-(2-hydroxyethyl)phenyl)-1,3-benzothiazol-2-yl)-N-(2-sulfamoylethyl)acetamide] were, in that order, 0.061 µM and less than 0.01 µM.
For the compound `CN1CCOc2cc(-c3ccc4nc(C(C(=O)NCCS(N)(=O)=O)S(C)(=O)=O)sc4c3)ccc21` (centres unmarked) [Example B61, 2-(6-(4-methyl-3,4-dihydro-2H-1,4-benzoxazin-7-yl)-1,3-benzothiazol-2-yl)-2-(methylsulfonyl)-N-(2-sulfamoylethyl)acetamide], the IC50 is 0.05 µM against hepatic lipase (HL) and less than 0.01 µM at Endothelial lipase (EL).
For the compound `CS(=O)(=O)C(C(=O)NCCS(N)(=O)=O)c1nc2ccc(-c3cccc(N4CCCC4)c3)cc2s1` (centres unmarked) [Example B62, 2-(methylsulfonyl)-2-(6-(3-(1-pyrrolidinyl)phenyl)-1,3-benzothiazol-2-yl)-N-(2-sulfamoylethyl)a-cetamide], the figures for the IC50 on hepatic lipase (HL) and at Endothelial lipase (EL) were 0.001 µM and 0.0012 µM, respectively.
For the compound `COCc1ccc(-c2ccc3nc(C(C(=O)NCCS(N)(=O)=O)S(C)(=O)=O)sc3c2)cc1` (centres unmarked) [Example B63, 2-(6-(4-(methoxymethyl)phen-yl)-1,3-benzothiazol-2-yl)-2-(methylsulfonyl)-N-(2-sulfamoylethyl)a-cetamide], the IC50 against hepatic lipase (HL) worked out at 0.0026 µM; at Endothelial lipase (EL), 0.0005 µM.
In the case of `COCCOC(=O)Nc1ccc(-c2ccc3nc(C(C(=O)NCCS(N)(=O)=O)S(C)(=O)=O)sc3c2)cc1` (centres unmarked) [Example B64, 2-methoxyethyl(4-(2-(1-(methylsulfonyl)-2-oxo-2-((2-sulfamoylethyl)amino)eth-yl)-1,3-benzothiazol-6-yl)phenyl)carbamate], the IC50 at hepatic lipase (HL) came out at 0.0019 µM; on Endothelial lipase (EL) it was 0.0005 µM.
In the case of `NS(=O)(=O)CCNC(=O)C(c1nc2ccc(-c3ccc(C(=O)NCC(F)(F)F)cc3)cc2s1)S(=O)(=O)Cc1ccc(F)cc1` (centres unmarked) [Example B65, 4-(2-(1-((4-fluorobenzyl)sul-fonyl)-2-oxo-2-((2-sulfamoylethyl)amino)ethyl)-1,3-benzothiazol-6-yl)-N-(2,2,2-trifluoroethyl)ben-zamide], the IC50 was 0.061 µM at hepatic lipase (HL) and less than 0.01 µM on Endothelial lipase (EL).
As to `CC(C)Cn1cc(-c2ccc3nc(C(C(=O)NCCS(N)(=O)=O)S(C)(=O)=O)sc3c2)cn1` (centres unmarked) [Example B67, 2-[6-(1-isobutyl-1H-pyrazol-4-yl)-1,3-benzothiazol-2-yl]-2-(methylsulfonyl)-N-(2-sulfamoylethyl)acetamide], the concentration for half-maximal inhibition (IC50) at hepatic lipase (HL) was 0.041 µM; against Endothelial lipase (EL) it was less than 0.01 µM.
The like results for `CS(=O)(=O)C(C(=O)NCCS(N)(=O)=O)c1nc2ccc(-c3cnn(Cc4ccccc4)c3)cc2s1` (centres unmarked) [Example B68, 2-[6-(1-benzyl-1H-pyrazol-4-yl)-1,3-benzothiazol-2-yl]-2-(methylsulfonyl)-N-(2-sulfamoylethyl)a-cetamide] were, in that order, less than 0.01 µM and less than 0.01 µM.
`NS(=O)(=O)CCNC(=O)C(c1nc2ccc(-c3cnn(CCN4CCOCC4)c3)cc2s1)S(=O)(=O)CCC(F)(F)F` (centres unmarked) [Example B69, 2-(6-(1-(2-(4-morpholinyl)eth-yl)-1H-pyrazol-4-yl)-1,3-benzothiazol-2-yl)-N-(2-sulfamoylethyl)-2-((3,3,3-trifluoropropyl)sul-fonyl)acetamide]: the IC50 against hepatic lipase (HL) is 0.612 µM; against Endothelial lipase (EL), less than 0.01 µM.
As to `COCCS(=O)(=O)C(C(=O)NCCS(N)(=O)=O)c1nc2ccc(-c3ccc(NC(=O)OC(C)(C)C)cc3)cc2s1` (centres unmarked) [Example B70, tert-butyl (4-(2-(1-((2-methoxyethyl)sulfonyl)-2-oxo-2-((2-sulfamoylethyl)a-mino)ethyl)-1,3-benzothiazol-6-yl)phenyl)car-bamate], the IC50 at hepatic lipase (HL) and against Endothelial lipase (EL) was less than 0.01 µM throughout.
On to `COCCS(=O)(=O)C(C(=O)NCCS(N)(=O)=O)c1nc2ccc(-c3ccc(NC(=O)OC)cc3)cc2s1` (centres unmarked) [Example B71, methyl (4-(2-(1-((2-methoxyethyl)sulfonyl)-2-oxo-2-((2-sulfamoylethyl)a-mino)ethyl)-1,3-benzothiazol-6-yl)phenyl)car-bamate], for which the IC50 against hepatic lipase (HL) and against Endothelial lipase (EL) was less than 0.01 µM throughout.
For `NS(=O)(=O)CCNC(=O)C(c1nc2ccc(-c3ccnc(F)c3)cc2s1)S(=O)(=O)CCC(F)(F)F` (centres unmarked) [Example B72, 2-(6-(2-fluoro-4-pyridinyl)-1,3-benzothiazol-2-yl)-N-(2-sulfamoylethyl)-2-((3,3,3-trifluoropropyl)sulfonyl)a-cetamide], the IC50 on hepatic lipase (HL) was 0.068 µM; against Endothelial lipase (EL), less than 0.01 µM.
For `NS(=O)(=O)CCNC(=O)C(c1nc2ccc(-c3cnn(CCN4CCOCC4)c3)cc2s1)S(=O)(=O)Cc1ccc(C(F)(F)F)cc1` (centres unmarked) [Example B73, 2-(6-(1-(2-(4-morpholinyl)ethyl)-1H-pyrazol-4-yl)-1,3-benzothiazol-2-yl)-N-(2-sulfamoylethyl)-2-((4-(trifluoromethyl)benzyl)sul-fonyl)acetamide], the IC50 at hepatic lipase (HL) was 15.9 µM; against Endothelial lipase (EL), less than 0.01 µM.
In the same order, the values of `CS(=O)(=O)C(C(=O)NCCS(N)(=O)=O)c1nc2ccc(-c3cnn(-c4ccc(F)cc4)c3)cc2s1` (centres unmarked) [Example B74, 2-(6-(1-(4-fluorophenyl)-1H-pyrazol-4-yl)-1,3-benzothiazol-2-yl)-2-(methylsulfonyl)-N-(2-sulfamoylethyl)acetamide] are less than 0.01 µM and less than 0.01 µM.
In the same order, the values of `NS(=O)(=O)CCNC(=O)C(c1nc2ccc(-c3cnn(CCN4CCOCC4)c3)cc2s1)S(=O)(=O)Cc1ccc(F)cc1` (centres unmarked) [Example B75, 2-((4-fluorobenzyl)sul-fonyl)-2-(6-(1-(2-(4-morpholinyl)ethyl)-1H-pyrazol-4-yl)-1,3-benzothiazol-2-yl)-N-(2-sulfamoylethyl)acetamide] are 25 µM and less than 0.01 µM.
